Results from patent US5262423A, “Rapamycin arylcarbonyl and alkoxycarbonyl carbamates as immunosuppressive and antifungal agents” (American Home Products Corporation, priority 1992, dated 1993).
Values after ≈ are worked out from the molar mass of the structure shown. Like-named read-outs stand apart in the source and are kept apart here.

Experiments:
fungi = conditions: cited from earlier work
[1] = system: thymocyte proliferation (lymphocyte proliferation, LAF); experiment: comitogen-induced thymocyte proliferation procedure (LAF); type: cell-based, normal BALB/c mice; conditions: Mus musculus, 72 h, mouse thymocytes, 72 hours with PHA and IL-1, test compound (Analogs)
Procedure: (§1) Immunosuppressive activity was evaluated in an in vitro standard pharmacological test procedure to measure lymphocyte proliferation (LAF) and in an in vivo procedure to evaluate the survival time of a pinch skin graft. Antifungal activity was determined against five strains of Candida albicans.
(§2) Immunosuppressive activity was evaluated in an in vitro standard pharmacological test procedure to measure lymphocyte proliferation (LAF) and in one in vivo standard pharmacological test procedure to evaluate the survival time of a pinch skin graft.
The comitogen-induced thymocyte proliferation procedure (LAF) was used as an in vitro measure of the immunosuppressive effects of representative compounds. Briefly, cells from the thymus of normal BALB/c mice were cultured for 72 hours with PHA and IL-1 and pulsed with tritiated thymidine during the last six hours. Cell are cultured with and without various concentrations of rapamycin, cyclosporin A, or test compound. Cells are harvested and incorporated; radiactivity is determined. Inhibition of lymphoproliferation is assessed in percent change in counts per minute from non-drug treated controls. The results are expressed by the following ratio: [formula] or as percent inhibition or IC50.

[2] = system: pinch skin graft (allograft); experiment: in vivo pinch skin graft survival (Skin Graft Model); set-up: species or system mice: male BALB/c donors, male C3 H recipients; conditions: intraperitoneally once daily for 6 consecutive days; mean ± S.D.; dose not given
Procedure: as §1, §2
The in vivo test procedure is designed to determine the survival time of pinch skin graft from male BALB/c donors transplanted to male C3 H recipients. The method is adapted from Billingham R. E. and Medawar P. B., J. Exp. Biol. 28:385-402, (1951). Briefly, a pinch skin graft from the donor is grafted on the dorsum of the recipient as a allograft, and an isograft is used as control in the same region. The recipients are treated with the test compound, intraperitoneally once daily for 6 consecutive days. Untreated recipients serve as rejection control. The graft is monitored daily and observations are recorded until the graft becomes 95% area necrosis or the suture line is off. This is considered as the rejection day. The graft survival time is one day before the rejection day. The mean graft survival time (number of days ±S.D.) of the drug treatment group is compared with the control group.

[3] = system: Candida albicans ATCC 10231; experiment: plate test procedure for anti-Candida activity, strain ATCC 10231; type: cell-based
Procedure: as §1
(§3) Antifungal activity of the compounds of this invention is measured against 5 strains of Candida albicans using a plate test procedure for measurement of inhibition. The following represents the typical procedure used. The compound to be tested is placed on sterile dried 1/4" plate disks, and allowed to dry. Agar plates are seeded with fungi and allowed to solidify. The impregnated disks are placed on the seeded Agar surface and incubated for the time required for the particular culture. Results shown in Table II are expressed in Minimum Inhibitory Concentration (MIC) (μg/ml) to inhibit growth.

[4] = system: Candida albicans ATCC 38246; experiment: plate test procedure for anti-Candida activity, strain ATCC 38246; type: cell-based
Procedure: as §1, §3

[5] = system: Candida albicans ATCC 38247; experiment: plate test procedure for anti-Candida activity, strain ATCC 38247; type: cell-based
Procedure: as §1, §3

[6] = system: Candida albicans ATCC 38248; experiment: plate test procedure for anti-Candida activity, strain ATCC 38248; type: cell-based
Procedure: as §1, §3

Candida albicans 3669 = experiment: plate test procedure for anti-Candida activity, strain 3669; type: cell-based
Procedure: as §1, §3

transplant rejection = conditions: cited from earlier work
Candida albicans = conditions: in vitro and in vivo; cited from earlier work
tumor = conditions: alone or in combination with picibanil; cited from earlier work
[7] = system: experimental allergic encephalomyelitis model, a model for multiple sclerosis; conditions: in vivo; cited from earlier work
[8] = system: adjuvant arthritis model, a model for rheumatoid arthritis; conditions: in vivo; cited from earlier work
[9] = system: formation of IgE-like antibodies; conditions: in vivo; cited from earlier work
[10] = ATCC10231, Candida albicans ATCC 10231, plate test, read-out: Minimal Inhibitory Concentration (MIC), ATCC 10231
[11] = ATCC38246, Candida albicans ATCC 38246, plate test, read-out: Minimal Inhibitory Concentration (MIC), ATCC 38246
[12] = ATCC38247, Candida albicans ATCC 38247, plate test, read-out: Minimal Inhibitory Concentration (MIC), ATCC 38247
[13] = ATCC38248, Candida albicans ATCC 38248, plate test, read-out: Minimal Inhibitory Concentration (MIC), ATCC 38248
[14] = Candida albicans 3669, plate test, read-out: Minimal Inhibitory Concentration (MIC), 3669

Compound	IC50 [1]	Skin Graft Model (Survival time days) [2]	MIC [3, 10]	MIC [4, 11]	MIC [5, 12]	MIC [6, 13]	MIC (Candida albicans 3669; [14])	inhibition of transplant rejection / immunosuppressive effect (transplant rejection)	also measured
33-desmethylrapamycin									antifungal and immunosuppressant activities (fungi): antifungal and immunosuppressant activities
CO[C@H]1C[C@@H]2CC[C@@H](C)[C@@](O)(O2)C(=O)C(=O)N2CCCC[C@H]2C(=O)O[C@H]([C@H](C)C[C@@H]2CC[C@@H](OC(=O)NC(=O)c3ccccc3)[C@H](OC)C2)CC(=O)[C@H](C)/C=C(\C)[C@@H](O)[C@@H](OC)C(=O)[C@H](C)C[C@H](C)/C=C/C=C/C=C/1C [Example 1, Rapamycin 42-ester with benzoylcarbamic acid]	1.4 nM	10.5 ± 0.55 days	0.05 µg/mL (≈ 0.0471 µM)	0.1 µg/mL (≈ 0.0942 µM)	0.05 µg/mL (≈ 0.0471 µM)	0.1 µg/mL (≈ 0.0942 µM)	0.1 µg/mL (≈ 0.0942 µM)		
CO[C@H]1C[C@@H]2CC[C@@H](C)[C@@](O)(O2)C(=O)C(=O)N2CCCC[C@H]2C(=O)O[C@H]([C@H](C)C[C@@H]2CC[C@@H](OC(=O)NC(=O)c3ccccc3)[C@H](OC)C2)CC(=O)[C@H](C)/C=C(\C)[C@@H](OC(=O)CN(C)C)[C@@H](OC)C(=O)[C@H](C)C[C@H](C)/C=C/C=C/C=C/1C [Example 2, Rapamycin 31-ester with N,N-dimethylglycine, 42-ester with benzoylcarbamic acid]	4.8 nM	10.4 ± 0.55 days	0.1 µg/mL (≈ 0.0872 µM)	0.4 µg/mL (≈ 0.349 µM)	0.1 µg/mL (≈ 0.0872 µM)	0.4 µg/mL (≈ 0.349 µM)	0.4 µg/mL (≈ 0.349 µM)		
CO[C@H]1C[C@@H]2CC[C@@H](C)[C@@](O)(O2)C(=O)C(=O)N2CCCC[C@H]2C(=O)O[C@H]([C@H](C)C[C@@H]2CC[C@@H](OC(=O)NC(=O)c3ccccc3)[C@H](OC)C2)CC(=O)[C@H](C)/C=C(\C)[C@@H](OC(=O)NC(=O)c2ccccc2)[C@@H](OC)C(=O)[C@H](C)C[C@H](C)/C=C/C=C/C=C/1C [Example 3, Rapamycin 31,42 diester with benzoylcarbamic acid]	1.2 nM								
COC(=O)NC(=O)O[C@@H]1CC[C@@H](C[C@@H](C)[C@@H]2CC(=O)[C@H](C)/C=C(\C)[C@@H](O)[C@@H](OC)C(=O)[C@H](C)C[C@H](C)/C=C/C=C/C=C(\C)[C@@H](OC)C[C@@H]3CC[C@@H](C)[C@@](O)(O3)C(=O)C(=O)N3CCCC[C@H]3C(=O)O2)C[C@H]1OC [Example 4, Rapamycin 42-ester with N-methoxycarbonylcarbamic acid]	2.7 nM	10.33 ± 0.52 days	0.05 µg/mL (≈ 0.0492 µM)	0.2 µg/mL (≈ 0.197 µM)	0.05 µg/mL (≈ 0.0492 µM)	0.1 µg/mL (≈ 0.0985 µM)	0.2 µg/mL (≈ 0.197 µM)		
C=CC[C@@H]1/C=C(\C)C[C@H](C)C[C@H](OC)[C@H]2O[C@@](O)(C(=O)C(=O)N3CCCC[C@H]3C(=O)O[C@H](/C(C)=C/[C@@H]3CC[C@@H](O)[C@H](OC)C3)[C@H](C)[C@@H](O)CC1=O)[C@H](C)C[C@@H]2OC [FK-506]								effective as immunosuppressive agents	
CO[C@H]1C[C@@H]2CC[C@@H](C)[C@@](O)(O2)C(=O)C(=O)N2CCCC[C@H]2C(=O)O[C@H]([C@H](C)C[C@@H]2CC[C@@H](O)[C@H](OC)C2)CC(=O)[C@H](C)/C=C(\C)[C@@H](O)[C@@H](OC)C(=O)[C@H](C)C[C@H](C)/C=C/C=C/C=C/1C [Rapamycin]		> 12.0 days						effective in inhibiting transplant rejection	MIC ([3]; Candida albicans, ATCC10231, read-out: Minimal Inhibitory Concentration (MIC), ATCC 10231): 0.003 µg/mL (≈ 0.00328 µM); MIC ([4]; Candida albicans, ATCC38246, read-out: Minimal Inhibitory Concentration (MIC), ATCC 38246): 0.025 µg/mL (≈ 0.0273 µM); MIC ([5]; Candida albicans, ATCC38247, read-out: Minimal Inhibitory Concentration (MIC), ATCC 38247): 0.003 µg/mL (≈ 0.00328 µM); MIC ([6]; Candida albicans, ATCC38248, read-out: Minimal Inhibitory Concentration (MIC), ATCC 38248): 0.006 µg/mL (≈ 0.00656 µM); MIC (Candida albicans 3669; Candida albicans, 3669, read-out: Minimal Inhibitory Concentration (MIC), 3669): 0.025 µg/mL (≈ 0.0273 µM); antifungal activity (Candida albicans): antifungal activity, particularly against Candida albicans, both in vitro and in vivo; antitumor activity (tumor): shown to have antitumor activity; effect in experimental allergic encephalomyelitis model [7]: effective; effect in adjuvant arthritis model [8]: effective; inhibition of formation of IgE-like antibodies [9]: effectively inhibited the formation of IgE-like antibodies
Cyclosporin A								effective as immunosuppressive agents	
